Experiments:
Assay in all cases: Kinase profiling
Format in all cases: biochemical
MAPKAPK5 = biological target: T1, MAPKAPK5 (Homo sapiens, UniProt Q8IW41)
T1 construct: purchased ProQinase (Freiburg, Germany)
T1 sequence (Q8IW41 1-473): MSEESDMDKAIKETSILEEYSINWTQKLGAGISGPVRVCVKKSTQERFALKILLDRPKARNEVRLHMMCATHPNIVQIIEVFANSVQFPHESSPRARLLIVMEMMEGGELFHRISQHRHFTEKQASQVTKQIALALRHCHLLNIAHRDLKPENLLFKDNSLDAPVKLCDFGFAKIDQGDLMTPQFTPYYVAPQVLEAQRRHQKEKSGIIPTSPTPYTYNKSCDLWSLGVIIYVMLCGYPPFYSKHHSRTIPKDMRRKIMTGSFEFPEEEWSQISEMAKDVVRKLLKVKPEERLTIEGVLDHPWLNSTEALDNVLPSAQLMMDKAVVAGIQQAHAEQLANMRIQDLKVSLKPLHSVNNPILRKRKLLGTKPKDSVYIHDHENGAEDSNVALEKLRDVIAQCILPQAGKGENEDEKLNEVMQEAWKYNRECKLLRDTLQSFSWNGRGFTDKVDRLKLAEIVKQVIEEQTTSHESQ
Procedure: (§1) The analysis was performed by ProQinase (Freiburg, Germany).

MET = biological target: T2, MET (Homo sapiens, UniProt P08581)
T2 construct: purchased ProQinase (Freiburg, Germany)
T2 sequence (P08581 25-1390): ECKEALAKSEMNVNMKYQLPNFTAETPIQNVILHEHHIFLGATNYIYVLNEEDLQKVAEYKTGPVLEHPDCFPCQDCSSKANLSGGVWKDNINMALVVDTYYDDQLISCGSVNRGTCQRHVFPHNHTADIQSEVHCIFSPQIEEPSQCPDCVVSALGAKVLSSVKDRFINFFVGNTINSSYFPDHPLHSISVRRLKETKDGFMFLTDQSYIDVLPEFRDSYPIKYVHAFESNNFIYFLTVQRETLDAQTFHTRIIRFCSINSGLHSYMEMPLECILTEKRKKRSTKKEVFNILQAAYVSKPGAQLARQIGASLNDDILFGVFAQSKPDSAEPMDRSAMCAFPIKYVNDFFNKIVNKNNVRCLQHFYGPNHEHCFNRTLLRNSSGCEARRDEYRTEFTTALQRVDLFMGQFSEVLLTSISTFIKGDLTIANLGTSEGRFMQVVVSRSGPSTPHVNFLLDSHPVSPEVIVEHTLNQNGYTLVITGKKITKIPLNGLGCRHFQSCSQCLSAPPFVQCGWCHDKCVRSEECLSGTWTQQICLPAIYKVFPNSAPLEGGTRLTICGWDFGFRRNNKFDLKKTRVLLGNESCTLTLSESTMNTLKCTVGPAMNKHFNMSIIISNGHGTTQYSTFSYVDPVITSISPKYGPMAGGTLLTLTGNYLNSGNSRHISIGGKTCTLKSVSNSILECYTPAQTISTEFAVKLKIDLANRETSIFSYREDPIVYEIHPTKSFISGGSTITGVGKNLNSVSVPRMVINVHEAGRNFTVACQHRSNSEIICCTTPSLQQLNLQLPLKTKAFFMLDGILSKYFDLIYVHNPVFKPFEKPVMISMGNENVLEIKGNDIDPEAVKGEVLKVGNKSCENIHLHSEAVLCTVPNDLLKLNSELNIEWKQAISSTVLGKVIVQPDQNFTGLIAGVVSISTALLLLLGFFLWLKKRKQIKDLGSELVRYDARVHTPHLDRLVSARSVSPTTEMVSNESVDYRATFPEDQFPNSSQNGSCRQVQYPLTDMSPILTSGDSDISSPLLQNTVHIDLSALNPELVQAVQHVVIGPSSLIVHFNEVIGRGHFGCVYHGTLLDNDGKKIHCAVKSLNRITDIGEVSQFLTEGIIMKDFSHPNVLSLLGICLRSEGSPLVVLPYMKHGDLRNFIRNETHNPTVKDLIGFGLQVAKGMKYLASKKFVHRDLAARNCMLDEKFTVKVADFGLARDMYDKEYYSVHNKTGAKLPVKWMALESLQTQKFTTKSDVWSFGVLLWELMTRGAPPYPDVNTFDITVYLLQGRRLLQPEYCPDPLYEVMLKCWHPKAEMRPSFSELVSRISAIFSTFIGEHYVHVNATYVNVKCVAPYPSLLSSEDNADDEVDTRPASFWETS
Procedure: as §1

CDK4/CycD3 = biological target: T3, CDK4/CycD3 (Homo sapiens, UniProt P11802)
T3 construct: purchased ProQinase (Freiburg, Germany)
T3 sequence (P11802 whole entry): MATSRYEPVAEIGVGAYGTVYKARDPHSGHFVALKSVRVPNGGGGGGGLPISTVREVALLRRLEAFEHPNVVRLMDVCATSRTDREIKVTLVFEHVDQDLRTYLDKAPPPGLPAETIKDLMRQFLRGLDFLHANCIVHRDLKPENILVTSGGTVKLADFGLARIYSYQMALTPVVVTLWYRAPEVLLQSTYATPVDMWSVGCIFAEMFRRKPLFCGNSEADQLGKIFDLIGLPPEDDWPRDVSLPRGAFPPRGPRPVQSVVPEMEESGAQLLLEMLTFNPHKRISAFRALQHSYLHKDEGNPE
T3 sequence (P30281 whole entry partner): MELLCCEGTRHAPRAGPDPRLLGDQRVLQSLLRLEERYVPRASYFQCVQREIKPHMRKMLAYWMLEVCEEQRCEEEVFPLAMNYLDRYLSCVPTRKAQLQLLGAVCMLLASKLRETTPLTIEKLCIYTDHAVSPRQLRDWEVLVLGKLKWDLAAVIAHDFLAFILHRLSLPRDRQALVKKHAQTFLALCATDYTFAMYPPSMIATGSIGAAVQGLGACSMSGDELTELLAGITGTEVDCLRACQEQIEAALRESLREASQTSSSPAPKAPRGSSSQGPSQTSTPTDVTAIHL
Procedure: as §1

EEF2K = biological target: T4, EEF2K (Homo sapiens, UniProt O00418)
T4 construct: purchased ProQinase (Freiburg, Germany)
T4 sequence (O00418 1-725): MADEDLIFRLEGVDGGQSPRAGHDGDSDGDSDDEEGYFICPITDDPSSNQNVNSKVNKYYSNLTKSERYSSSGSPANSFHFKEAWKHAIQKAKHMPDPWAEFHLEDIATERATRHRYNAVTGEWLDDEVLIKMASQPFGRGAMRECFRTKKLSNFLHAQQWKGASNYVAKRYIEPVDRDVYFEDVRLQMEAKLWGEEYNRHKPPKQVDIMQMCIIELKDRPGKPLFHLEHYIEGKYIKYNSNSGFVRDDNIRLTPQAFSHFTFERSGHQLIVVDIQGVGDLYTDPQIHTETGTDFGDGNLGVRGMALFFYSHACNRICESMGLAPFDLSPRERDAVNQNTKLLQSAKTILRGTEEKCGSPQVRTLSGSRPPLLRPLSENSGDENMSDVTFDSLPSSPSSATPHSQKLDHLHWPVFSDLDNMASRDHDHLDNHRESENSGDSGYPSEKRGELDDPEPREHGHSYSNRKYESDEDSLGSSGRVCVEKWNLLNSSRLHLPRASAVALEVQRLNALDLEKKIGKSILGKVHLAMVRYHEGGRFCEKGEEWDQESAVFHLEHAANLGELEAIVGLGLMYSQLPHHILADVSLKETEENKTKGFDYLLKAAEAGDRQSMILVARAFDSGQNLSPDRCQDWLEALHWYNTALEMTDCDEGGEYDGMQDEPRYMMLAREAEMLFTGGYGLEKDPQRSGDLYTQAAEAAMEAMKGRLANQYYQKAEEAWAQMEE
Procedure: as §1

BUB1B = biological target: T5, BUB1B (Homo sapiens, UniProt O60566)
T5 construct: purchased ProQinase (Freiburg, Germany)
T5 sequence (O60566 whole entry): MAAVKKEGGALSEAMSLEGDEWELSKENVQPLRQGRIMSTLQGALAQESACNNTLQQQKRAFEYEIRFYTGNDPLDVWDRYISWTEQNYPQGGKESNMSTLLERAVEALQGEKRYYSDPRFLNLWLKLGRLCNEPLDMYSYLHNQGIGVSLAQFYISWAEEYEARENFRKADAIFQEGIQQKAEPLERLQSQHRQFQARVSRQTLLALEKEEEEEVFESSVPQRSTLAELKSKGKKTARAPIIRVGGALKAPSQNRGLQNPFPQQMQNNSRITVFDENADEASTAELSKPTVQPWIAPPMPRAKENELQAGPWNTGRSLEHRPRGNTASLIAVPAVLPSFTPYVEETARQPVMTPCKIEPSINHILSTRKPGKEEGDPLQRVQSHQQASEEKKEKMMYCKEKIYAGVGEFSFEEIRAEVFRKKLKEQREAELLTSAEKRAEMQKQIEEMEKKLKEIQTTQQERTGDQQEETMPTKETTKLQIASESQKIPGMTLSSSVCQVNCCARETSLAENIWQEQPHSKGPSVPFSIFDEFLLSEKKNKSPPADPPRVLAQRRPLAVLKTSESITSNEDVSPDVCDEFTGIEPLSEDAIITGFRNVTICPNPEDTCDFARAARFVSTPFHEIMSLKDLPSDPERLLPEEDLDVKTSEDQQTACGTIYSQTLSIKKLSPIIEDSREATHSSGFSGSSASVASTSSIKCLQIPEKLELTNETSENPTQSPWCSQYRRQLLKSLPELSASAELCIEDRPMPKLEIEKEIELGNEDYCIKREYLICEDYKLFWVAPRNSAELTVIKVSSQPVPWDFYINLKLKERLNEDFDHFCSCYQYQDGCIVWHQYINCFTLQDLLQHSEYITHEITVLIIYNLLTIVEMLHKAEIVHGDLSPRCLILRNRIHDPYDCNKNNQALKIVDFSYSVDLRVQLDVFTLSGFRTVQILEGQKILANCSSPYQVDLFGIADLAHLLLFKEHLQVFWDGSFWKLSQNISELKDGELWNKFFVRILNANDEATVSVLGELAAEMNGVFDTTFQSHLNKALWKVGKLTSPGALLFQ
Procedure: as §1

ASK1 = biological target: T6, ASK1 (Homo sapiens, UniProt Q99683)
T6 construct: purchased ProQinase (Freiburg, Germany)
T6 sequence (Q99683 1-1374): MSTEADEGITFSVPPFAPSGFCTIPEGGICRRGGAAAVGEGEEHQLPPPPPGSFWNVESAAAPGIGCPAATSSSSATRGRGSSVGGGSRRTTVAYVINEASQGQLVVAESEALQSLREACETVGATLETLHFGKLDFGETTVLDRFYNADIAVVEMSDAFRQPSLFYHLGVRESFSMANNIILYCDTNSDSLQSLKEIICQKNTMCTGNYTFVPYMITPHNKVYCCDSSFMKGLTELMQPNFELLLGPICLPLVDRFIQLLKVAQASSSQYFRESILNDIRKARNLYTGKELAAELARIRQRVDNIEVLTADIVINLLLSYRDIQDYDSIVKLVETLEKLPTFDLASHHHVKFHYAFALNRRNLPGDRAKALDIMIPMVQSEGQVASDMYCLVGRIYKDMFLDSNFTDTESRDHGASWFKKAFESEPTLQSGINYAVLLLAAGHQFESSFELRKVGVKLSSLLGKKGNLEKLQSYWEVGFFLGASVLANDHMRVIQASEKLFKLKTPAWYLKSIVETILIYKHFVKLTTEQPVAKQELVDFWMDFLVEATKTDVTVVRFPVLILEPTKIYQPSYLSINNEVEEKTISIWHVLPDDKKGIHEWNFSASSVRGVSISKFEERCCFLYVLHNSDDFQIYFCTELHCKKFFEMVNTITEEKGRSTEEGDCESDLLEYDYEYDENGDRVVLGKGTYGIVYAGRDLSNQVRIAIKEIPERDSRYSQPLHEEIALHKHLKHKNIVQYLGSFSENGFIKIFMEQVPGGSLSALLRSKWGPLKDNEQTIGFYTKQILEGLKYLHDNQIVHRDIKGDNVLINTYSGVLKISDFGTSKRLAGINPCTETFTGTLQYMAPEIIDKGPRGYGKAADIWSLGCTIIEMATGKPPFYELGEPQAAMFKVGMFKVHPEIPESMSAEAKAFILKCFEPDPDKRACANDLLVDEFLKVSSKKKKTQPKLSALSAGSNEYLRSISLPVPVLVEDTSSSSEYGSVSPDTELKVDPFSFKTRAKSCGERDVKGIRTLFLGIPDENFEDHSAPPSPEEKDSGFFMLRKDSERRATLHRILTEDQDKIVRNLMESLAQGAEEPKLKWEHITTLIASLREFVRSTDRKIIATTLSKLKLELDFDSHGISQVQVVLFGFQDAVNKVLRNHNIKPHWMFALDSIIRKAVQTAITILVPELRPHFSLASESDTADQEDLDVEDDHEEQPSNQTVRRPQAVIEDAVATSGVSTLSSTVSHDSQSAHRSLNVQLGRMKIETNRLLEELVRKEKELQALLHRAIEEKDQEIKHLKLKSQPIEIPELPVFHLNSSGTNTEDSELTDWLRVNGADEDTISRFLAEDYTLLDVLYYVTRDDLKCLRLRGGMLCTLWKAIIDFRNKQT
Procedure: as §1

ERBB2 = biological target: T7, ERBB2 (Homo sapiens, UniProt P04626)
T7 construct: purchased ProQinase (Freiburg, Germany)
T7 sequence (P04626 23-1255): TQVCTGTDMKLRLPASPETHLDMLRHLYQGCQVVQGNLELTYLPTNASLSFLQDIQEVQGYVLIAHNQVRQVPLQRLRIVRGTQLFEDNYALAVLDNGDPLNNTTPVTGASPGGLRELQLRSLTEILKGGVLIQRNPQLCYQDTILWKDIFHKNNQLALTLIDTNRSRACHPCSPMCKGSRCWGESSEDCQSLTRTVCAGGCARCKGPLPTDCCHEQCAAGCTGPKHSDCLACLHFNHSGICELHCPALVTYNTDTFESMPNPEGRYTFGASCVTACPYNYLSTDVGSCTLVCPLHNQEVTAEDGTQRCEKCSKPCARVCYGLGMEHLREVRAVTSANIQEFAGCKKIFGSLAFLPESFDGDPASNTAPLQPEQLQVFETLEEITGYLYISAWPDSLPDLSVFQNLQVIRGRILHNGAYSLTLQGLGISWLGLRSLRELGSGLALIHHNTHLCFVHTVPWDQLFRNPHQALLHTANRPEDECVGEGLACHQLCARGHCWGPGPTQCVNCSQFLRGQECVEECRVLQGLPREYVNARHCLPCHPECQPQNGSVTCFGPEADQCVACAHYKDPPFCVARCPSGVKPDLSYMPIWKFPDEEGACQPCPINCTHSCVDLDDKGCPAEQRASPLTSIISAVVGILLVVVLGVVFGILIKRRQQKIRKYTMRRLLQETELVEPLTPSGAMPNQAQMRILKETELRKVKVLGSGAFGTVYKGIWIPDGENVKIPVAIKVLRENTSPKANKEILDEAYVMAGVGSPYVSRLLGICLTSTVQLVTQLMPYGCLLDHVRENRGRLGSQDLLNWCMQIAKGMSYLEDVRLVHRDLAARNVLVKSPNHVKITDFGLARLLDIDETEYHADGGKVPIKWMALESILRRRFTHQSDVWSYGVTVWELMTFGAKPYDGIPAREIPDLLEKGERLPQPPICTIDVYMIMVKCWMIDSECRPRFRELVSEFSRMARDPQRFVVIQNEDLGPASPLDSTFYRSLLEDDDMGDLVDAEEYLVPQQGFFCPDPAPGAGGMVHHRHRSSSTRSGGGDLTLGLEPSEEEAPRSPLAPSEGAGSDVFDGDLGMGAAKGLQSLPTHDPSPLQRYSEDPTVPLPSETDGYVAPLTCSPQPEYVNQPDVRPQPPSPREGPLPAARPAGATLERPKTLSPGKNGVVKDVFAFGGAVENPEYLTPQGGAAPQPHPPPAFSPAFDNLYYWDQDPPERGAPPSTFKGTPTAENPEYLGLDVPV
Procedure: as §1

LIMK2 = biological target: T8, LIMK2 (Homo sapiens, UniProt P53671)
T8 construct: purchased ProQinase (Freiburg, Germany)
T8 sequence (P53671 whole entry): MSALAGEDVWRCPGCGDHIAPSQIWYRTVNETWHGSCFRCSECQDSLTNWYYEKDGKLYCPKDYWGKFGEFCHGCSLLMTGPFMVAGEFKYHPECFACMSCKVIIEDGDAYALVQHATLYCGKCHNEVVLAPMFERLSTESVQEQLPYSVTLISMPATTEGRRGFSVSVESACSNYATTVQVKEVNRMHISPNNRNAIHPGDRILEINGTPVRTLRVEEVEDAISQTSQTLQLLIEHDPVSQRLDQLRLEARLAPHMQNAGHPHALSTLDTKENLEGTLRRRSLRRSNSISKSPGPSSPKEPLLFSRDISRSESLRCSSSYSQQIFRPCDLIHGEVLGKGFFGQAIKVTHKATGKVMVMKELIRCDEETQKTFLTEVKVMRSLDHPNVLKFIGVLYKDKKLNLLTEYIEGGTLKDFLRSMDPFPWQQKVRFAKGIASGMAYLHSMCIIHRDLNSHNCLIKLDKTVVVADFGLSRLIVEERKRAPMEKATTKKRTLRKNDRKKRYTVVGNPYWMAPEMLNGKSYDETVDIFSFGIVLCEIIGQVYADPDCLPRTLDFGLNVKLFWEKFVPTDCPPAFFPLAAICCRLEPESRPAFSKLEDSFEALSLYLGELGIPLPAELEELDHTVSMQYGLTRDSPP
Procedure: as §1

| SMILES | Residual activity (MAPKAPK5; 1.0E-05 M) | Residual activity (MAPKAPK5; 1.0E-06 M) | Residual activity (MET; 1.0E-05 M) | Residual activity (MET; 1.0E-06 M) | Residual activity (CDK4/CycD3; 1.0E-05 M) | Residual activity (CDK4/CycD3; 1.0E-06 M) | Residual activity (EEF2K; 1.0E-05 M) | Residual activity (EEF2K; 1.0E-06 M) | Residual activity (BUB1B; 1.0E-05 M) | Residual activity (BUB1B; 1.0E-06 M) | Residual activity (ASK1; 1.0E-05 M) | Residual activity (ASK1; 1.0E-06 M) | Residual activity (ERBB2; 1.0E-05 M) | Residual activity (ERBB2; 1.0E-06 M) | Residual activity (LIMK2; 1.0E-05 M) | Residual activity (LIMK2; 1.0E-06 M) |
| --- | --- | --- | --- | --- | --- | --- | --- | --- | --- | --- | --- | --- | --- | --- | --- | --- |
| O=C(Cc1ccccc1)Nc1ccc(F)c(Nc2ccc3c(c2)CCCCC3=O)c1 [Compound 100] | 89 % of control | 127 % of control | 89 % of control | 101 % of control | 89 % of control | 93 % of control | 89 % of control | 102 % of control | 96 % of control | 108 % of control | 85 % of control | 87 % of control | 79 % of control | 96 % of control | 82 % of control | 95 % of control |
| O=C(Nc1ccc(F)c(Nc2ccc3c(c2)CCCCC3=O)c1)c1cccc(F)c1 [Compound 109] | 97 % of control | 101 % of control | 91 % of control | 95 % of control | 89 % of control | 94 % of control | 94 % of control | 95 % of control | 106 % of control | 104 % of control | 88 % of control | 87 % of control | 86 % of control | 99 % of control | 93 % of control | 98 % of control |

Source: publication PMC9030254, “Target Hopping from Protein Kinases to PXR: Identification of Small-Molecule Protein Kinase Inhibitors as Selective Modulators of Pregnane X Receptor from TüKIC Library” (Cells, 2022)
